# Target: hKIF18A (1-374) (Homo sapiens (Human), UniProt Q8NI77)
# Assay: Inhibition of KIF18A microtubule-dependent ATPase activity (ADP-Glo)
# Conditions: not given
# Chain of hKIF18A (1-374) (Q8NI77 whole entry, looked up): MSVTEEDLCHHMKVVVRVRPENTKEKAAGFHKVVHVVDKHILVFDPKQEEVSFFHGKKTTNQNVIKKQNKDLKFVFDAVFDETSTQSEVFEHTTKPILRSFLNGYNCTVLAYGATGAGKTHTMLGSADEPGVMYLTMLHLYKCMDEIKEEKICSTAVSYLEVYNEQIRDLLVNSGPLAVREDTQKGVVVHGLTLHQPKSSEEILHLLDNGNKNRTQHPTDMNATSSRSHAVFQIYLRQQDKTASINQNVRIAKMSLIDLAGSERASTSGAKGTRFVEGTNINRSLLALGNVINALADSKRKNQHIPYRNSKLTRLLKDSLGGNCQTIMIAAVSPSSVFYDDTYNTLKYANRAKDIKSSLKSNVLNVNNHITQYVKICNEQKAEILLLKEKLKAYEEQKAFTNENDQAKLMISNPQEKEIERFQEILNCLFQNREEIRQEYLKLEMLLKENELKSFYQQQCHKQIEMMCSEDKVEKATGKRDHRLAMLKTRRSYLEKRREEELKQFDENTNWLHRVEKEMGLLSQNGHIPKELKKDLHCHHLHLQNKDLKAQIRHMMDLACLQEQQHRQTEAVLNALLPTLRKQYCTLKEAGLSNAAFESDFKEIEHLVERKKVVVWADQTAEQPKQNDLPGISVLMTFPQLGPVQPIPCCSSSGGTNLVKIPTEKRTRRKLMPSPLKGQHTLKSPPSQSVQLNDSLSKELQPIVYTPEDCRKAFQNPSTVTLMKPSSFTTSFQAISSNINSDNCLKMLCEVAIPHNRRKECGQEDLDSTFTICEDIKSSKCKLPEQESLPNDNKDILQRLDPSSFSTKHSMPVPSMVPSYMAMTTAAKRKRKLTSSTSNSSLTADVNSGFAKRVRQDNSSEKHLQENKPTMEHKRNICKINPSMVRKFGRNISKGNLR
# Chain of hKIF18A (1-374) (Q2XVP4 whole entry partner, looked up): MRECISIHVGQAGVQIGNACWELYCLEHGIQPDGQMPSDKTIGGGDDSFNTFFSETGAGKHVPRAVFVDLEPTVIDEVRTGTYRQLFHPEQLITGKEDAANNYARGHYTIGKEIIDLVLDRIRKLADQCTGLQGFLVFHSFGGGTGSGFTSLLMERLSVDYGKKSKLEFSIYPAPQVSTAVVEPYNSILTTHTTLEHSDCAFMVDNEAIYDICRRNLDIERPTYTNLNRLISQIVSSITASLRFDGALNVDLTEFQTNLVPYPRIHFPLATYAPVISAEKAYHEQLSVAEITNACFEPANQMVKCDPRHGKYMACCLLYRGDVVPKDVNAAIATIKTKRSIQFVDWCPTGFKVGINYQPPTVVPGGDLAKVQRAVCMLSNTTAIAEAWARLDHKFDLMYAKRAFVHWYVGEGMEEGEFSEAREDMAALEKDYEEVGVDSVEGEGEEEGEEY
# Chain of hKIF18A (1-374) (P02554 whole entry partner, looked up): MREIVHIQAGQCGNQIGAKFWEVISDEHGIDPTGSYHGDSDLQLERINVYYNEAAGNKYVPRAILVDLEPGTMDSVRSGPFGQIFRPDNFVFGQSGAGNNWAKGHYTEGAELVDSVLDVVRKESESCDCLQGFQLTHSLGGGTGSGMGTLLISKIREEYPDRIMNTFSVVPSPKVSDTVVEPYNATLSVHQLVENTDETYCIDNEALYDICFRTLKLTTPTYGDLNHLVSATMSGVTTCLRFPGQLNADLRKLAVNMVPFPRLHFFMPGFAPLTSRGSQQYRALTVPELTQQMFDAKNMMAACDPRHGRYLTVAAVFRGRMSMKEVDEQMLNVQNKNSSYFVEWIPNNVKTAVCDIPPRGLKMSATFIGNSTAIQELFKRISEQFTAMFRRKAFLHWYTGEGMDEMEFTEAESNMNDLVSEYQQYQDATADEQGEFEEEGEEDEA
row,IC50 [nM],Compound
1,13,"CS(=O)(=O)Nc1ccc2c(c1)C1(CCC3(CC3)CC1)CN2C(=O)c1cccc(S(=O)(=O)NC2CC(F)C2)c1 (stereo not drawn) [Compound 204, N-(3-fluorocyclobutyl)-3-(5″- (methylsulfonamido)dispiro [cyclopropane-1,1′-cyclohexane-4′,3″- indoline]-1″-carbonyl)benzenesulfonamide]"

# Same assay, conditions: KIF18A microtubule-dependent ATPase activity, biochemical assay
row,IC50 [nM],Compound
1,35,"CCS(=O)(=O)Nc1ccc2c(c1)C1(CCC3(CC3)CC1)CN2C(=O)c1ccc([C@@H](O)C(C)(C)C)o1 (single isomer, unassigned) [Compound 372b]"
2,30,"C[C@@H](c1cccc(C(=O)N2CC3(CCC4(CC4)CC3)c3cc(NS(C)(=O)=O)ccc32)c1)N1CCC(F)(F)CC1 (single isomer, unassigned) [Compound 341a]"
3,310,"CS(=O)(=O)Nc1ccc2c(c1)C1(CCC3(CC3)CC1)CN2C(=O)c1cccc(CN2CCCO2)c1 [Compound 346, N-(1″-(3-(isoxazolidin-2-ylmethyl)benzoyl)dispiro[cyclopropane-1,1′-cyclohexane-4′,3″-indolin]-5″- yl)methanesulfonamide]"
4,8.9,"CS(=O)(=O)Nc1ccc2c(c1)C1(CCC3(CC3)CC1)CN2C(=O)c1cccc(C(O)CC2CCC2)c1 (stereo not drawn) [Compound 305, N-(1″-(3-(2-cyclobutyl-1-hydroxyethyl)benzoyl)dispiro [cyclopropane-1,1′-cyclohexane-4′,3″-indolin]-5″-yl)methanesulfonamide]"
5,12,CS(=O)(=O)Nc1ccc2c(c1)C1(CCC3(CC3)CC1)CN2C(=O)c1cccc([C@@H](O)C2CC(F)(F)C2)c1 [Compound 351b]
6,8.8,"CS(=O)(=O)Nc1ccc2c(c1)C1(CCC3(CC3)CC1)CN2C(=O)c1ccc(F)c(S(=O)(=O)NC23CC(C2)C3)c1 [Compound 337, N-(bicyclo[1.1.1]pentan-1-yl)-2-fluoro-5-(5″-(methylsulfonamido)dispiro[cyclopropane-1,1′-cyclohexane-4′,3″-indoline]-1″- carbonyl)benzenesulfonamide]"
7,100,"CS(=O)(=O)Nc1ccc2c(c1)C1(CCC3(CC3)CC1)CN2C(=O)c1cccc(S(=O)(=O)NC2CC(O)C2)c1 (stereo not drawn) [Compound 218, N-(3-hydroxycyclobutyl)-3-(5″- (methylsulfonamido)dispiro[cyclopropane-1,1′-cyclohexane-4′,3″-indoline]-1″-carbonyl)benzenesulfonamide]"
8,190,"CN(c1cccc(C(=O)N2CC3(CCC4(CC4)CC3)c3cc(NS(C)(=O)=O)ccc32)c1)C1CCCC1 [Compound 348, N-(1″-(3-(cyclopentyl(methyl)amino)benzoyl)dispiro[cyclopropane-1,1′-cyclohexane-4′,3″-indolin]-5″- yl)methanesulfonamide]"
9,24,"CS(=O)(=O)Nc1ccc2c(c1)C1(CCC3(CC3)CC1)CN2C(=O)c1cccc(C(C#N)C2CCCC2)c1 (stereo not drawn) [Compound 339, N-(1″-(3-(cyano(cyclopentyl)methyl)benzoyl)dispiro[cyclopropane-1,1′-cyclohexane-4′,3″-indolin]-5″- yl)methanesulfonamide]"
10,64,"CCC(CO)NS(=O)(=O)c1cccc(C(=O)N2CC3(CCC4(CC4)CC3)c3cc(NS(C)(=O)=O)ccc32)c1 (stereo not drawn) [Compound 208, N-(1-hydroxybutan-2-yl)-3-(5″- (methylsulfonamido)dispiro[cyclopropane-1,1′-cyclohexane-4′,3″-indoline]-1″-carbonyl)benzenesulfonamide]"
11,16,"CS(=O)(=O)Nc1ccc2c(c1)C1(CCC3(CC3)CC1)CN2C(=O)c1ccnc([C@H](O)C2CCCC2)c1 (single isomer, unassigned) [Compound 316b]"
12,23,"CC1CCC2(C1)CN(C(=O)c1cccc(S(=O)(=O)N3CCC(F)(F)CC3)c1)c1ccc(NS(C)(=O)=O)cc12 (stereo not drawn) [Compound 23, N-(1′-(3-((4,4-difluoropiperidin-1-yl)sulfonyl)benzoyl)-3-methylspiro[cyclopentane-1,3′-indolin]-5′-yl)methanesulfonamide]"
13,17,"CC(C)(C)NS(=O)(=O)c1cc(C(=O)N2CC3(CCCCC3)c3cc(NS(=O)(=O)CCO)ccc32)cs1 [Compound 289, N-(tert-butyl)-4-(5′-((2-hydroxyethyl)sulfonamido)spiro [cyclohexane-1,3′-indoline]-1′-carbonyl)thiophene-2-sulfonamide]"
14,15,"CS(=O)(=O)Nc1ccc2c(c1)C1(CCC3(CC3)CC1)CN2C(=O)c1cccc([C@H](O)C2CCC2)c1 (single isomer, unassigned) [Compound 313b]"
15,17,"CS(=O)(=O)Nc1ccc2c(c1)C1(CCC3(CC3)CC1)CN2C(=O)c1cccc(S(=N)(=O)C2CCCC2)c1 (stereo not drawn) [Compound 287, N-(1″-(3-(cyclopentanesulfonimidoyl)benzoyl)dispiro[cyclopropane-1,1′-cyclohexane-4′,3″-indolin]-5″- yl)methanesulfonamide]"
16,34,"CC1(C)CCN1S(=O)(=O)c1cccc(C(=O)N2CC3(CCC4(CC4)CC3)c3cc(NS(C)(=O)=O)ccc32)c1 [Compound 245, N-(1″-(3-((2,2-dimethylazetidin-1-yl)sulfonyl)benzoyl)dispiro[cyclopropane-1,1′-cyclohexane-4′,3″-indolin]-5″- yl)methanesulfonamide]"
17,86,"CC1CCN(S(=O)(=O)c2cccc(C(=O)N3CC4(CCCCC4)c4cc(NS(C)(=O)=O)ccc43)c2)C1 (stereo not drawn) [Compound 71, N-(1′-(3-((3-methylpyrrolidin-1-yl)sulfonyl)benzoyl)spiro[cyclohexane-1,3′-indolin]-5′-yl)methanesulfonamide]"
18,270,"CS(=O)(=O)Nc1ccc2c(c1)C1(CCCCC1)CN2C(=O)c1cccc(S(=O)(=O)N2CCC2)c1 [Compound 45, N-(1′-(3-(azetidin-1-ylsulfonyl)benzoyl)spiro[cyclohexane-1,3′-indolin]-5′-yl)methanesulfonamide]"
19,21,"C=C1CCC2(CC1)CN(C(=O)c1cccc(S(=O)(=O)NC(C)(C)C)c1)c1ccc(NS(C)(=O)=O)cc12 [Compound 324, N-(tert-butyl)-3-(4-methylene-5′-(methylsulfonamido)spiro[cyclohexane-1,3′-indoline]-1′-carbonyl)benzenesulfonamide]"
20,78,"CCN(c1ccc2c(c1)C1(CCC3(CC3)CC1)CN2C(=O)c1cccc(S(=O)(=O)N2CCC(F)(F)CC2)c1)S(C)(=O)=O [Compound 32, N-(1″-(3-((4,4-difluoropiperidin-1-yl)sulfonyl)benzoyl)dispiro[cyclopropane-1,1′-cyclohexane-4′,3″-indolin]-5″- yl)-N-ethylmethanesulfonamide]"
21,83,"CC(C)(C)NS(=O)(=O)c1cccc(C(=O)N2CC3(CCC4(CC4)CC3)c3cc(C(O)C(F)(F)F)ccc32)c1 (single isomer, unassigned) [Compound 338b]"
22,72,"CS(=O)(=O)Nc1ccc2c(c1)C1(CCCCC1)CN2C(=O)c1cccc(S(=O)(=O)C2CCCC2)c1 [Compound 50, N-(1′-(3-(cyclopentylsulfonyl)benzoyl)spiro [cyclohexane-1,3′-indolin]-5′-yl)methanesulfonamide]"

row,Compound,IC50 [nM]
1,"CS(=O)(=O)Nc1ccc2c(c1)C1(CCC3(CC3)CC1)CN2C(=O)c1cccc(C(O)C2CCCC2)c1 (stereo not drawn) [Compound 165, N-(1″-(3-(cyclopentyl(hydroxy)methyl)benzoyl)dispiro[cyclopropane-1,1′-cyclohexane-4′,3″indolin]-5″- yl)methanesulfonamide]",15

# — US12084420B2, “Indoline compounds for inhibiting KIF18A” (Volastra Therapeutics, Inc., priority 2021, dated 2024)
